Source: US8481536B2, “Benzotriazine inhibitors of kinases” (TargeGen, Inc., priority 2004, dated 2013)

Molecular target: Recombinant human c-Src (Homo sapiens (Human), UniProt P12931)
Experiment: Src kinase inhibition in vitro (luciferase-based residual ATP, KinaseGlo)
Assay type: biochemical
Conditions: ATP 3 μM, PTK2 substrate, 90 minutes at room temperature
Protocol: The ability of compounds of the present invention to inhibit the activity of three groups of kinases was tested. Kinases tested included the src family (primarily src and yes), some angiogenic growth factor receptors (Fgfr1, Vegfr, and Pdgfrβ) and the ephrin, EphB4. All kinase reactions were conducted in 96-well plates with a final reaction volume of 50 ul.
After reacting for about 90 minutes at room temperature, residual ATP was determined using a luciferase-based assay (KinaseGlo, Promega Corp.) as a measure of kinase activity. Data from four wells were then averaged and used to determine IC50 values for the test compounds (Prism software package, GraphPad Software, San Diego Calif.).
The test results for inhibition of Src kinase are presented in Table 1, and the test results for inhibition of some other kinases (i.e., Yes, EphB4, and Pdgfrβ) are presented in Table 2.

Sequence of Recombinant human c-Src (P12931 whole entry, looked up): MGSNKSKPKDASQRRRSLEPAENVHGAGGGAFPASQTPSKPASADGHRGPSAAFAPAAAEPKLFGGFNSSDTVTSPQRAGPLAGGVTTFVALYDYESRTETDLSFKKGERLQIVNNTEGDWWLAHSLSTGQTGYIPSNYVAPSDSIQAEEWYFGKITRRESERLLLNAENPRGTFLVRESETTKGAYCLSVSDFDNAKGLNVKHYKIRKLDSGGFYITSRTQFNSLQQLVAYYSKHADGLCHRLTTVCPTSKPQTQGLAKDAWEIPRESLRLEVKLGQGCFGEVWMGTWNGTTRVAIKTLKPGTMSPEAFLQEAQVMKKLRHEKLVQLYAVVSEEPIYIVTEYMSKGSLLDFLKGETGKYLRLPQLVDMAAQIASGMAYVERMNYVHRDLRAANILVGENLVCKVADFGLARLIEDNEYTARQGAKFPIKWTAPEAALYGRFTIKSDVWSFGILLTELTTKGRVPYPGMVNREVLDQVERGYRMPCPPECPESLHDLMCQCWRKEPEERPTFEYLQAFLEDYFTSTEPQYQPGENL

Compound	IC50 [nM]
Cc1ccc(C#N)cc1-c1cc(C)c2nc(Nc3ccc(S(=O)(=O)NCCN4CCCC4)cc3)nnc2c1	25.2
Cc1cccc(C)c1-c1cc(C)c2nc(Nc3ccc(N(C)C)cc3)nnc2c1	244
Cc1cc2nc(Nc3ccc(S(=O)(=O)NCCN4CCCC4)cc3)nnc2cc1-c1ccccc1 [4-(6-methyl-7-phenyl-benzo[1,2,4]triazin-3-ylamino)-N-(2-pyrrolidin-1-yl-ethyl)-benzenesulfonamide]	315
Cc1cc(-c2c(O)cccc2Cl)cc2nnc(Nc3ccc(S(=O)(=O)NCCN4CCCC4)cc3)nc12 [4-(7-(2-chloro-6-hydroxyphenyl)-5-methylbenzo[e][1,2,4]triazin-3-ylamino)-N-(2-(pyrrolidin-1-yl)ethyl)benzensulfonamide]	12.6
CNc1cccc(-c2cc(C)c3nc(Nc4ccc(S(=O)(=O)NCCN5CCCC5)cc4)nnc3c2)c1 [4-[5-methyl-7-(3-methylamino-phenyl)-benzo[1,2,4]triazin-3-ylamino]-N-(2-pyrrolidin-1-yl-ethyl)-benzenesulfonamide]	631
Cc1cc2nc(Nc3ccc(S(=O)(=O)NCCN4CCCC4)cc3)nnc2cc1-c1ccccc1C(F)(F)F [4-[6-methyl-7-(2-trifluoromethyl-phenyl)-benzo[1,2,4]triazin-3-ylamino]-N-(2-pyrrolidin-1-yl-ethyl)-benzenesulfonamide]	66.5
Cc1cc(-c2c(Cl)cccc2Cl)cc2nnc(Nc3ccc(S(=O)(=O)NCCN4CCCC4)cc3)nc12 [4-[7-(2,6-dichloro-phenyl)-5-methyl-benzo[1,2,4]triazin-3-ylamino]-N-(2-pyrrolidin-1-yl-ethyl)-benzenesulfonamide]	14
Cc1cc2nc(Nc3ccc(S(=O)(=O)NCCN4CCCC4)cc3)nnc2cc1-c1ccccc1CO [4-[7-(2-Hydroxymethyl-phenyl)-6-methyl-benzo[1,2,4]triazin-3-ylamino]-N-(2-pyrrolidin-1-yl-ethyl)-benzenesulfonamide]	72.2
Cc1cc(-c2cccc(N)c2)cc2nnc(Nc3ccc(S(=O)(=O)NCCN4CCCC4)cc3)nc12 [4-[7-(3-amino-phenyl)-5-methyl-benzo[1,2,4]triazin-3-ylamino]-N-(2-pyrrolidin-1-yl-ethyl)-benzenesulfonamide]	282
Cc1cc(-c2cccc(NS(C)(=O)=O)c2)cc2nnc(Nc3ccc(S(=O)(=O)NCCN4CCCC4)cc3)nc12 [4-[7-(3-methanesulfonylamino-phenyl)-5-methyl-benzo[1,2,4]triazin-3-ylamino]-N-(2-pyrrolidin-1-yl-ethyl)-benzenesulfonamide]	2900
Cc1ccc(C#N)cc1-c1cc2nnc(Nc3ccc(S(=O)(=O)NCCN4CCCC4)cc3)nc2cc1C [4-[7-(5-Cyano-2-methyl-phenyl)-6-methyl-benzo[1,2,4]triazin-3-ylamino]-N-(2-pyrrolidin-1-yl-ethyl)-benzenesulfonamide]	12.3
Cc1cc(-c2cc(N)ccc2Cl)cc2nnc(Nc3ccc(S(=O)(=O)NCCN4CCCC4)cc3)nc12 [4-[7-(5-amino-2-chloro-phenyl)-5-methyl-benzo[1,2,4]triazin-3-ylamino]-N-(2-pyrrolidin-1-yl-ethyl)-benzenesulfonamide]	51
Cc1cccc(C)c1-c1cc(N)c2nc(Nc3ccc(OCCN4CCCC4)cc3)nnc2c1 [7-(2,6-dimethyl-phenyl)-N3-[4-(2-pyrrolidin-1-yl-ethoxy)-phenyl]-benzo[1,2,4]triazine-3,5-diamine]	9.7
CNc1cc(-c2c(C)cccc2C)cc2nnc(Nc3ccc(OCCN4CCCC4)cc3)nc12 [7-(2,6-dimethyl-phenyl)-N5-methyl-N3-[4-(2-pyrrolidin-1-yl-ethoxy)-phenyl]-benzo[1,2,4]triazine-3,5-diamine]	10.6
Cc1cccc(Nc2nnc3cc(-c4c(C)cccc4C)cc(C)c3n2)c1C [(2,3-dimethyl-phenyl)-[7-(2,6-dimethyl-phenyl)-5-methyl-benzo[1,2,4]triazin-3-yl]-amine]	> 10000
Cc1ccc(Nc2nnc3cc(-c4c(C)cccc4C)cc(C)c3n2)c(C)c1 [(2,4-dimethyl-phenyl)-[7-(2,6-dimethyl-phenyl)-5-methyl-benzo[1,2,4]triazin-3-yl]-amine]	> 10000
Cc1ccc(C)c(Nc2nnc3cc(-c4c(C)cccc4C)cc(C)c3n2)c1 [(2,5-dimethyl-phenyl)-[7-(2,6-dimethyl-phenyl)-5-methyl-benzo[1,2,4]triazin-3-yl]-amine]	> 10000
COc1ccccc1Nc1nnc2cc(-c3c(C)cccc3C)cc(C)c2n1 [(2-methoxy-phenyl)-[7-(2,6-dimethyl-phenyl)-5-methyl-benzo[1,2,4]triazin-3-yl]-amine]	> 100000
Cc1cccc(C)c1-c1cc(C)c2nc(Nc3cccc(Cl)c3)nnc2c1 [(3-chloro-phenyl)-[7-(2,6-dimethyl-phenyl)-5-methyl-benzo[1,2,4]triazin-3-yl]-amine]	134
CCCCc1ccc(Nc2nnc3cc(-c4c(C)cccc4C)cc(C)c3n2)cc1 [(4-butyl-phenyl)-[7-(2,6-dimethyl-phenyl)-5-methyl-benzo[1,2,4]triazin-3-yl]-amine]	> 100000

Compound	IC50 [nM]
CCOc1ccc(Nc2nnc3cc(-c4c(C)cccc4C)cc(C)c3n2)cc1 [(4-ethoxy-phenyl)-[7-(2,6-dimethyl-phenyl)-5-methyl-benzo[1,2,4]triazin-3-yl]-amine]	108
COc1ccc(Nc2nnc3cc(-c4c(C)cccc4C)cc(C)c3n2)cc1 [(4-methoxy-phenyl)-[7-(2,6-dimethyl-phenyl)-5-methyl-benzo[1,2,4]triazin-3-yl]-amine]	140
Cc1cc(N2CCCCC2)cc2nnc(Nc3cccnc3)nc12 [(5-methyl-7-piperidin-1-yl-benzo[1,2,4]triazin-3-yl)-pyridin-3-yl-amine]	> 10000
Cc1cc(-c2ccccn2)cc2nnc(Nc3ccc(OCCN4CCCC4)cc3)nc12 [(5-methyl-7-pyridin-2-yl-benzo[1,2,4]triazin-3-yl)-[4-(2-pyrrolidin-1-yl-ethoxy)-phenyl]-amine]	1800
Cc1cc(-c2cc(OC(=O)c3ccccc3)ccc2Cl)cc2nnc(Nc3ccc(OCCN4CCCC4)cc3)nc12 [Benzoic acid 4-chloro-3-{5-methyl-3-[4-(2-pyrrolidin-1-yl-ethoxy)-phenylamino]-benzo[1,2,4]triazin-7-yl}-phenyl ester]	> 10000
CC(=O)Nc1nnc2cc(-c3c(C)cccc3C)cc(C)c2n1 [N-[7-(2,6-dimethyl-phenyl)-5-methyl-benzo[1,2,4]triazin-3-yl]-acetamide]	> 10000
Cc1cccc(C)c1-c1cc(C)c2nc(NC(=O)c3ccccc3)nnc2c1 [N-[7-(2,6-dimethyl-phenyl)-5-methyl-benzo[1,2,4]triazin-3-yl]-benzamide]	1800
Cc1cc(C)c(-c2cc(C)c3nc(Nc4ccccc4)nnc3c2)c(C)c1 [[5-methyl-7-(2,4,6-trimethyl-phenyl)-benzo[1,2,4]triazin-3-yl]-phenyl-amine]	> 10000
Clc1cccc(Cl)c1-c1ccc2nc(Nc3ccc(OCCN4CCCC4)cc3)nnc2c1 [[7-(2,6-dichloro-phenyl)-benzo[1,2,4]triazin-3-yl]-[4-(2-pyrrolidin-1-yl-ethoxy)-phenyl]-amine]	121
Cc1cccc(C)c1-c1cc2nnc(Nc3ccccc3)nc2c(C)c1C [[7-(2,6-dimethyl-phenyl)-5,6-dimethyl-benzo[1,2,4]triazin-3-yl]-phenyl-amine]	130
Cc1cccc(C)c1-c1cc(C)c2nc(Nc3cccc(S(=O)(=O)N4CCNCC4)c3)nnc2c1 [[7-(2,6-dimethyl-phenyl)-5-methyl-benzo[1,2,4]triazin-3-yl]-[3-(piperazine-1-sulfonyl)-phenyl]-amine]	48.2
Cc1cccc(C)c1-c1cc(C)c2nc(Nc3ccc(S(=O)(=O)N4CCN(C)CC4)cc3)nnc2c1 [[7-(2,6-dimethyl-phenyl)-5-methyl-benzo[1,2,4]triazin-3-yl]-[4-(4-methyl-piperazine-1-sulfonyl)-phenyl]-amine]	137
Cc1cccc(C)c1-c1cc(C)c2nc(Nc3ccccn3)nnc2c1 [[7-(2,6-dimethyl-phenyl)-5-methyl-benzo[1,2,4]triazin-3-yl]-pyridin-2-yl-amine]	> 10000
Cc1cccc(C)c1-c1cc(C)c2nc(Nc3ccncc3)nnc2c1 [[7-(2,6-dimethyl-phenyl)-5-methyl-benzo[1,2,4]triazin-3-yl]-pyridine-4-yl-amine]	36
Cc1cccc(C)c1-c1cc(C)c2nc(Nc3cccc4cccnc34)nnc2c1 [[7-(2,6-dimethyl-phenyl)-5-methyl-benzo[1,2,4]triazin-3-yl]-quinolin-8-yl-amine]	> 10000
Cc1cccc(C)c1-c1cc(C)c2nc(Nc3ccc(OCCCN4CCCC4)cc3)nnc2c1 [[7-(2,6-dimethyl-phenyl)-5-methyl-benzo[1,2,4]triazin-3-yl]-{4-(3-pyrrolidin-1-yl-propoxy)-phenyl]-amine]	12.6
Cc1cc2nc(Nc3ccc(OCCN4CCCC4)cc3)nnc2cc1-c1c(C)cccc1C [[7-(2,6-dimethyl-phenyl)-6-methyl-benzo[1,2,4]triazin-3-yl]-[4-(2-pyrrolidin-1-yl-ethoxy)-phenyl]-amine]	12.3
Cc1cccc(C)c1-c1ccc2nc(Nc3ccc(OCCN4CCCC4)cc3)nnc2c1 [[7-(2,6-dimethyl-phenyl)-benzo[1,2,4]triazin-3-yl]-[4-(2-pyrrolidin-1-yl-ethoxy)-phenyl]-amine]	15
COc1ccc(Cl)c(-c2cc(C)c3nc(Nc4ccc(OCCN5CCCC5)cc4)nnc3c2)c1 [[7-(2-chloro-5-methoxy-phenyl)-5-methyl-benzo[1,2,4]triazin-3-yl]-[4-(2-pyrrolidin-1-yl-ethoxy)-phenyl]-amine]	788
